Measurements as given in PubChem BioAssay (NCI).
Values joined by “and” are separate entries in the source; they are usually repeats but may differ in a detail not shown here. Identical values can stand only once.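 Values below derive from 48-hour exposures of cells grown in 96-well plates, with endpoints linearly interpolated between the two concentrations bracketing the appropriate inhibition level. The concentration for 50% growth inhibition is given as GI50. TGI: total growth inhibition.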

Key:
Experiment in all cases: NCI tumour cell line growth inhibition, 48 h
[1] = tested on: RXF 393 renal
[2] = tested on: MOLT-4 leukemia
[3] = tested on: UO-31 renal
[4] = tested on: UACC-257 melanoma
[5] = tested on: SR leukemia
[6] = tested on: MDA-N
[7] = tested on: COLO 205 colon
[8] = tested on: OVCAR-5 ovarian
[9] = tested on: SK-OV-3 ovarian
[10] = tested on: T-47D breast
[11] = tested on: HS 578T breast
[12] = tested on: MDA-MB-435
[13] = tested on: OVCAR-3 ovarian
[14] = tested on: MCF7 breast
[15] = tested on: HCT-116 colon
[16] = tested on: MDA-MB-231 breast
[17] = tested on: SF-268 CNS
[18] = tested on: SF-539 CNS
[19] = tested on: SF-295 CNS
[20] = tested on: U251 CNS
[21] = tested on: DU-145 prostate
[22] = tested on: NCI-H23 lung
[23] = tested on: NCI-H226 lung
[24] = tested on: SNB-75 CNS
[25] = tested on: RPMI-8226 leukemia
[26] = tested on: CAKI-1 renal
[27] = tested on: OVCAR-4 ovarian
[28] = tested on: PC-3 prostate
[29] = tested on: ACHN renal
[30] = tested on: A498 renal
[31] = tested on: HCC-2998 colon
[32] = tested on: OVCAR-8 ovarian
[33] = tested on: A549 NSCLC
[34] = tested on: SK-MEL-2 melanoma
[35] = tested on: EKVX NSCLC
[36] = tested on: SK-MEL-28 melanoma
[37] = tested on: HT29 colon
[38] = tested on: SK-MEL-5 melanoma
[39] = tested on: NCI-H522 lung
[40] = tested on: IGROV1 ovarian
[41] = tested on: HOP-62 NSCLC
[42] = tested on: CCRF-CEM leukemia
[43] = tested on: NCI/ADR-RES ovarian
[44] = tested on: HL-60(TB) leukemia
[45] = tested on: MALME-3M melanoma
[46] = tested on: SW-620 colon
[47] = tested on: K-562 leukemia
[48] = tested on: SN12C renal
[49] = tested on: SNB-19 CNS
[50] = tested on: TK-10 renal
[51] = tested on: M14 melanoma
[52] = tested on: KM12 colon
[53] = tested on: HOP-92 NSCLC
[54] = tested on: BT-549 breast
[55] = tested on: UACC-62 melanoma
[56] = tested on: HCT-15 colon
[57] = tested on: NCI-H460 lung
[58] = tested on: 786-0 renal
[59] = tested on: LOX IMVI melanoma

**Q.** How did the TGI [1] turn out when `CC(=O)O[C@H]1CC2C(C3CC[C@H](C(C)CCC(N)=O)[C@]31C)[C@H](OC(C)=O)C[C@@H]1CC3(CC[C@]21C)OOC1(CCC(C)CC1)OO3` (stereo not given in full) was run?
**A.** 9.72 µM

**Q.** And the TGI [2]?
**A.** 4.47 µM and 4.44 µM

**Q.** What about the TGI [3] of the same compound?
**A.** 3.08 µM and 2.64 µM

**Q.** And the TGI [4]?
**A.** 22.9 µM and 19.2 µM

**Q.** And the TGI [5]?
**A.** 3.28 µM

**Q.** And the TGI [6]?
**A.** 4.91 µM

**Q.** What about the TGI [7] of the same compound?
**A.** 3.19 µM and 3.12 µM

**Q.** What about the TGI [8] of the same compound?
**A.** 4.86 µM and 3.66 µM

**Q.** And the GI50 [9]?
**A.** 4.3 µM and 2.11 µM

**Q.** And the TGI [9]?
**A.** 16.3 µM and 3.94 µM

**Q.** What about the TGI [10] of the same compound?
**A.** 4.19 µM and 4.21 µM

**Q.** What about the TGI [11] of the same compound?
**A.** 5.77 µM and 5.51 µM

**Q.** And the TGI [12]?
**A.** 4.47 µM and 3.23 µM

**Q.** And the TGI [13]?
**A.** 3.51 µM and 3.8 µM

**Q.** And the TGI [14]?
**A.** 15.2 µM and 5.01 µM

**Q.** And the TGI [15]?
**A.** 5.36 µM and 3.72 µM

**Q.** What about the TGI [16] of the same compound?
**A.** 4.94 µM

**Q.** And the TGI [17]?
**A.** 4.46 µM

**Q.** And the TGI [18]?
**A.** 7.1 µM and 3.37 µM

**Q.** What about the TGI [19] of the same compound?
**A.** 12.3 µM and 3.59 µM

**Q.** And the TGI [20]?
**A.** 3.78 µM

**Q.** And the GI50 [21]?
**A.** 1.82 µM

**Q.** What about the TGI [21] of the same compound?
**A.** 3.26 µM

**Q.** What about the TGI [22] of the same compound?
**A.** 5.29 µM and 3.45 µM

**Q.** What about the TGI [23] of the same compound?
**A.** 6.2 µM and 3.15 µM

**Q.** What about the GI50 [24] of the same compound?
**A.** 1.98 µM

**Q.** What about the TGI [24] of the same compound?
**A.** 4.05 µM

**Q.** And the TGI [25]?
**A.** 4.07 µM

**Q.** What about the TGI [26] of the same compound?
**A.** 5.15 µM and 3.25 µM

**Q.** What about the TGI [27] of the same compound?
**A.** 3.52 µM and 3.02 µM

**Q.** What about the TGI [28] of the same compound?
**A.** 9.44 µM and 4.29 µM

**Q.** What about the TGI [29] of the same compound?
**A.** 3.88 µM and 2.93 µM

**Q.** What about the TGI [30] of the same compound?
**A.** 29.3 µM and 24.4 µM

**Q.** And the TGI [31]?
**A.** 4.57 µM and 3.96 µM

**Q.** And the TGI [32]?
**A.** 4.56 µM and 3.12 µM

**Q.** What about the TGI [33] of the same compound?
**A.** 6.13 µM

**Q.** What about the TGI [34] of the same compound?
**A.** 4.37 µM and 3.2 µM

**Q.** What about the GI50 [35] of the same compound?
**A.** 1.01 µM and 1.43 µM

**Q.** What about the TGI [35] of the same compound?
**A.** 2.35 µM and 2.78 µM

**Q.** And the GI50 [36]?
**A.** 5.65 µM and 2.48 µM

**Q.** And the TGI [36]?
**A.** 14.3 µM and 8.13 µM

**Q.** What about the TGI [37] of the same compound?
**A.** 7.01 µM

**Q.** What about the TGI [38] of the same compound?
**A.** 11.6 µM and 3.22 µM

**Q.** And the TGI [39]?
**A.** 3.6 µM and 2.94 µM

**Q.** And the GI50 [40]?
**A.** 1.54 µM and 0.491 µM

**Q.** And the TGI [40]?
**A.** 3.07 µM and 1.84 µM

**Q.** And the GI50 [41]?
**A.** 1.47 µM and 1.07 µM

**Q.** And the TGI [41]?
**A.** 2.96 µM and 2.31 µM

**Q.** And the TGI [42]?
**A.** 3.33 µM and 4.43 µM

**Q.** What about the TGI [43] of the same compound?
**A.** 8.01 µM and 3.28 µM

**Q.** And the TGI [44]?
**A.** 6.13 µM and 4.82 µM

**Q.** What about the TGI [45] of the same compound?
**A.** 9.95 µM and 4.07 µM

**Q.** What about the TGI [46] of the same compound?
**A.** 11.5 µM and 4.24 µM

**Q.** What about the TGI [47] of the same compound?
**A.** 16.8 µM and 5 µM

**Q.** And the TGI [48]?
**A.** 5.69 µM and 3.24 µM

**Q.** What about the GI50 [49] of the same compound?
**A.** 5.31 µM and 2.62 µM

**Q.** What about the TGI [49] of the same compound?
**A.** 19.4 µM and 5.72 µM

**Q.** And the TGI [50]?
**A.** 8.39 µM and 3.57 µM

**Q.** What about the TGI [51] of the same compound?
**A.** 8.64 µM and 3.76 µM

**Q.** What about the TGI [52] of the same compound?
**A.** 4.69 µM and 3.41 µM

**Q.** And the TGI [53]?
**A.** 6.25 µM and 3.56 µM

**Q.** What about the TGI [54] of the same compound?
**A.** 6.43 µM and 3.35 µM

**Q.** What about the GI50 [55] of the same compound?
**A.** 1.85 µM

**Q.** What about the TGI [55] of the same compound?
**A.** 3.99 µM

**Q.** And the TGI [56]?
**A.** 4.89 µM and 3.43 µM

**Q.** What about the TGI [57] of the same compound?
**A.** 8.76 µM

**Q.** What about the TGI [58] of the same compound?
**A.** 3.78 µM and 3.2 µM

**Q.** What does the source list for `Cc1[nH]c2ncn(Nc3ccccc3)c(=N)c2c1Cc1ccccc1`?
**A.** TGI [1]: > 91.6 µM; TGI [2]: > 100 µM; TGI [3]: > 100 µM; TGI [4]: > 100 µM; TGI [5]: > 100 µM; TGI [6]: > 100 µM; TGI [7]: > 100 µM; TGI [8]: > 100 µM; TGI [9]: > 100 µM; TGI [10]: > 86.9 µM; TGI [11]: > 100 µM; TGI [12]: > 100 µM; TGI [13]: > 100 µM; TGI [14]: > 100 µM; TGI [15]: > 100 µM; TGI [16]: > 100 µM; TGI [17]: > 100 µM; TGI [18]: > 100 µM; TGI [19]: > 100 µM; TGI [20]: > 100 µM; TGI [21]: > 100 µM; TGI [22]: > 100 µM; TGI [23]: > 100 µM; TGI [24]: > 100 µM; TGI [25]: > 100 µM; TGI [26]: > 70.6 µM; TGI [27]: > 100 µM; TGI [28]: > 100 µM; TGI [29]: > 100 µM; TGI [30]: > 100 µM; TGI [31]: > 100 µM; TGI [32]: > 100 µM; TGI [33]: > 100 µM; TGI [35]: > 100 µM; TGI [36]: > 100 µM; TGI [37]: > 100 µM; TGI [38]: > 100 µM; TGI [39]: > 100 µM; TGI [40]: 98.4 µM; TGI [41]: > 100 µM; TGI [42]: > 100 µM; TGI [43]: > 100 µM; TGI [44]: > 100 µM; TGI [45]: > 100 µM; TGI [46]: > 100 µM; TGI [47]: > 100 µM; TGI [48]: > 100 µM; TGI [59]: > 100 µM; TGI [49]: > 100 µM; TGI [50]: > 100 µM; TGI [51]: > 100 µM; TGI [52]: > 56.8 µM; TGI [53]: > 100 µM; TGI [54]: > 100 µM; TGI [55]: > 100 µM; TGI [56]: > 100 µM; TGI [57]: > 100 µM; TGI [58]: > 100 µM

**Q.** Which results are given for `COc1ccc(C2CC(c3ccc4ccccc4c3O)=NN2)cc1OC` (stereo not given)?
**A.** TGI [1]: > 100 µM; TGI [2]: 65.4 µM; TGI [3]: > 100 µM; TGI [4]: > 100 µM; TGI [5]: 46.3 µM; TGI [6]: 60.8 µM; TGI [7]: > 100 µM; TGI [8]: > 100 µM; TGI [9]: > 100 µM; TGI [10]: > 100 µM; TGI [11]: > 100 µM; TGI [12]: > 100 µM; TGI [13]: > 100 µM; TGI [14]: > 100 µM; TGI [15]: > 100 µM; TGI [16]: 96 µM; TGI [17]: > 100 µM; TGI [18]: > 100 µM; TGI [19]: > 100 µM; TGI [20]: > 100 µM; TGI [21]: > 100 µM; TGI [22]: > 100 µM; TGI [23]: > 100 µM; TGI [24]: > 100 µM; TGI [25]: > 100 µM; TGI [26]: > 100 µM; TGI [27]: > 100 µM; TGI [28]: > 100 µM; TGI [29]: > 100 µM; TGI [30]: > 100 µM; TGI [31]: > 100 µM; TGI [32]: > 100 µM; TGI [33]: > 100 µM; TGI [34]: > 100 µM; TGI [36]: > 100 µM; TGI [37]: > 100 µM; TGI [38]: > 100 µM; TGI [39]: > 100 µM; TGI [40]: > 100 µM; TGI [41]: > 100 µM; TGI [42]: 42.6 µM; TGI [43]: > 100 µM; TGI [45]: > 100 µM; TGI [46]: > 100 µM; TGI [47]: 52.1 µM; TGI [48]: > 100 µM; TGI [50]: > 100 µM; TGI [51]: > 100 µM; TGI [52]: > 100 µM; TGI [53]: > 100 µM; TGI [54]: 74 µM; TGI [55]: > 100 µM; TGI [56]: > 100 µM; TGI [57]: > 100 µM; TGI [58]: > 100 µM
